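Cultured in 96-well plates, cells were exposed to test compound for 48 hours across five concentrations. GI50: concentration for 50% inhibition of growth.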 The source made the active and inactive calls. Cut-off read from the data, not from the text of the source: active = GI50 up to about 1.1 µM and inactive = higher.
Experiments:
Assay in all cases: NCI anticancer screen, dose series, 48 h
Hs-578T = test system: Hs-578T
T47D = test system: T47D
SR = test system: SR
M14 = test system: M14
TK-10 = test system: TK-10
Malme-3M = test system: Malme-3M
MDA-N = test system: MDA-N
SNB-19 = test system: SNB-19
IGROV-1 = test system: IGROV-1
SW-620 = test system: SW-620
NCI-H23 = test system: NCI-H23
SK-MEL-5 = test system: SK-MEL-5
NCI-H522 = test system: NCI-H522
NCI/ADR-RES = test system: NCI/ADR-RES
MOLT-4 = test system: MOLT-4
SNB-75 = test system: SNB-75
COLO 205 = test system: COLO 205
CCRF-CEM = test system: CCRF-CEM
MCF7 = test system: MCF7
HT-29 = test system: HT-29
A498 = test system: A498
OVCAR-5 = test system: OVCAR-5
CAKI-1 = test system: CAKI-1
HOP-62 = test system: HOP-62
SK-MEL-2 = test system: SK-MEL-2
HL-60 = test system: HL-60
NCI-H226 = test system: NCI-H226
MDA-MB-231 = test system: MDA-MB-231
PC-3 = test system: PC-3
EKVX = test system: EKVX
UO-31 = test system: UO-31
RPMI-8226 = test system: RPMI-8226
DU-145 = test system: DU-145
RXF 393 = test system: RXF 393
U-251 = test system: U-251
HOP-92 = test system: HOP-92
SN12C = test system: SN12C
HCC 2998 = test system: HCC 2998
A549 = test system: A549
SF-539 = test system: SF-539
BT-549 = test system: BT-549
MDA-MB-435 = test system: MDA-MB-435
LOX IMVI = test system: LOX IMVI
SF-268 = test system: SF-268
KM12 = test system: KM12
HCT-15 = test system: HCT-15
OVCAR-8 = test system: OVCAR-8
ACHN = test system: ACHN
NCI-H460 = test system: NCI-H460
OVCAR-3 = test system: OVCAR-3
SK-MEL-28 = test system: SK-MEL-28
UACC-62 = test system: UACC-62
OVCAR-4 = test system: OVCAR-4
SK-OV-3 = test system: SK-OV-3
786-0 = test system: 786-0
K562 = test system: K562
UACC-257 = test system: UACC-257
HCT-116 = test system: HCT-116
SF-295 = test system: SF-295

For `CCOP(=O)(COCCn1ncc(=O)[nH]c1=O)OCC`, the GI50 (Hs-578T) was > 100 µM (inactive), the GI50 (T47D) was > 100 µM (inactive) and the GI50 (SR) was > 100 µM (inactive). For the same molecule, the GI50 (M14) was > 100 µM (inactive), the GI50 (TK-10) was > 100 µM (inactive) and the GI50 (Malme-3M) was > 100 µM (inactive). For the same molecule, the GI50 (MDA-N) was > 100 µM (inactive), the GI50 (SNB-19) was > 100 µM (inactive) and the GI50 (IGROV-1) was > 100 µM (inactive). For the same molecule, the GI50 (SW-620) was > 100 µM (inactive), the GI50 (NCI-H23) was > 100 µM (inactive) and the GI50 (SK-MEL-5) was > 100 µM (inactive). The GI50 (NCI-H522) was > 100 µM (inactive), the GI50 (NCI/ADR-RES) was > 100 µM (inactive) and the GI50 (MOLT-4) was > 100 µM (inactive). For the same molecule, the GI50 (SNB-75) was > 100 µM (inactive), the GI50 (COLO 205) was > 100 µM (inactive) and the GI50 (CCRF-CEM) was > 100 µM (inactive). The GI50 (MCF7) was > 100 µM (inactive), the GI50 (HT-29) was > 100 µM (inactive) and the GI50 (A498) was > 100 µM (inactive). The GI50 (OVCAR-5) was > 100 µM (inactive), the GI50 (CAKI-1) was > 100 µM (inactive) and the GI50 (HOP-62) was > 100 µM (inactive). For the same molecule, the GI50 (SK-MEL-2) was > 100 µM (inactive), the GI50 (HL-60) was > 100 µM (inactive) and the GI50 (NCI-H226) was > 100 µM (inactive). The GI50 (MDA-MB-231) was > 100 µM (inactive), the GI50 (PC-3) was > 100 µM (inactive) and the GI50 (EKVX) was > 100 µM (inactive). For the same molecule, the GI50 (UO-31) was > 100 µM (inactive), the GI50 (RPMI-8226) was > 100 µM (inactive) and the GI50 (DU-145) was > 100 µM (inactive). The GI50 (RXF 393) was > 100 µM (inactive), the GI50 (U-251) was > 100 µM (inactive) and the GI50 (HOP-92) was > 100 µM (inactive). The GI50 (SN12C) was > 100 µM (inactive), the GI50 (HCC 2998) was > 100 µM (inactive) and the GI50 (A549) was > 100 µM (inactive). For the same molecule, the GI50 (SF-539) was > 100 µM (inactive), the GI50 (BT-549) was > 100 µM (inactive) and the GI50 (MDA-MB-435) was > 100 µM (inactive). The GI50 (LOX IMVI) was > 100 µM (inactive), the GI50 (SF-268) was > 100 µM (inactive) and the GI50 (KM12) was > 100 µM (inactive). The GI50 (HCT-15) was greater than 100 µM, the GI50 (OVCAR-8) was > 100 µM (inactive) and the GI50 (ACHN) was > 100 µM (inactive). For the same molecule, the GI50 (NCI-H460) was > 100 µM (inactive), the GI50 (OVCAR-3) was > 100 µM (inactive) and the GI50 (SK-MEL-28) was > 100 µM (inactive).
In the case of `CCN(CC)C(=S)SC1C(=O)NC(=O)NC1=O`, the GI50 (Hs-578T) is reported as > 100 µM (inactive), the GI50 (T47D) is reported as > 100 µM (inactive) and the GI50 (UACC-62) is reported as > 100 µM (inactive). The GI50 (SR) was > 100 µM (inactive), the GI50 (TK-10) was > 100 µM (inactive) and the GI50 (Malme-3M) was > 100 µM (inactive). The GI50 (MDA-N) was > 100 µM (inactive), the GI50 (OVCAR-4) was > 100 µM (inactive) and the GI50 (SK-OV-3) was > 100 µM (inactive). For the same molecule, the GI50 (IGROV-1) was > 100 µM (inactive), the GI50 (SW-620) was > 100 µM (inactive) and the GI50 (786-0) was > 100 µM (inactive). The GI50 (NCI-H23) was > 100 µM (inactive), the GI50 (SK-MEL-5) was > 100 µM (inactive) and the GI50 (NCI-H522) was > 100 µM (inactive). For the same molecule, the GI50 (NCI/ADR-RES) was 0.6 µM (active), the GI50 (MOLT-4) was > 100 µM (inactive) and the GI50 (SNB-75) was > 100 µM (inactive). For the same molecule, the GI50 (COLO 205) was > 100 µM (inactive), the GI50 (CCRF-CEM) was > 100 µM (inactive) and the GI50 (MCF7) was > 100 µM (inactive). The GI50 (HT-29) was > 100 µM (inactive), the GI50 (A498) was 0.0106 µM (active) and the GI50 (OVCAR-5) was > 100 µM (inactive). The GI50 (CAKI-1) was > 100 µM (inactive), the GI50 (HOP-62) was > 100 µM (inactive) and the GI50 (SK-MEL-2) was > 100 µM (inactive). For the same molecule, the GI50 (HL-60) was > 100 µM (inactive), the GI50 (NCI-H226) was > 100 µM (inactive) and the GI50 (MDA-MB-231) was > 100 µM (inactive). The GI50 (PC-3) was > 100 µM (inactive), the GI50 (EKVX) was > 100 µM (inactive) and the GI50 (UO-31) was > 100 µM (inactive). For the same molecule, the GI50 (K562) was > 100 µM (inactive), the GI50 (RPMI-8226) was > 100 µM (inactive) and the GI50 (DU-145) was > 100 µM (inactive). The GI50 (RXF 393) was > 100 µM (inactive), the GI50 (U-251) was > 100 µM (inactive) and the GI50 (HOP-92) was > 100 µM (inactive). The GI50 (SN12C) was > 100 µM (inactive), the GI50 (HCC 2998) was > 100 µM (inactive) and the GI50 (A549) was > 100 µM (inactive). The GI50 (SF-539) was > 100 µM (inactive), the GI50 (BT-549) was > 100 µM (inactive) and the GI50 (MDA-MB-435) was > 100 µM (inactive). For the same molecule, the GI50 (LOX IMVI) was > 100 µM (inactive), the GI50 (UACC-257) was > 100 µM (inactive) and the GI50 (HCT-116) was > 100 µM (inactive). For the same molecule, the GI50 (SF-295) was > 100 µM (inactive), the GI50 (SF-268) was > 100 µM (inactive) and the GI50 (KM12) was > 100 µM (inactive). The GI50 (HCT-15) was greater than 100 µM, the GI50 (OVCAR-8) was > 100 µM (inactive) and the GI50 (ACHN) was > 100 µM (inactive). For the same molecule, the GI50 (NCI-H460) was 0.017 µM (active), the GI50 (OVCAR-3) was > 100 µM (inactive) and the GI50 (SK-MEL-28) was > 100 µM (inactive).
`CSc1nc(NC2CCCC2)c2cc[nH]c2n1` was tested, and the GI50 (Hs-578T) was 53.1 µM (inactive), the GI50 (T47D) was 61.1 µM (inactive) and the GI50 (UACC-62) was 23.5 µM (inactive). The GI50 (SR) was 22.3 µM (inactive), the GI50 (M14) was 65 µM (inactive) and the GI50 (TK-10) was 72.6 µM (inactive). The GI50 (Malme-3M) was > 100 µM (inactive), the GI50 (MDA-N) was 54.3 µM (inactive) and the GI50 (OVCAR-4) was 48.5 µM (inactive). The GI50 (SK-OV-3) was > 100 µM (inactive), the GI50 (SNB-19) was 66.7 µM (inactive) and the GI50 (IGROV-1) was 98.2 µM (inactive). The GI50 (SW-620) was > 100 µM (inactive), the GI50 (786-0) was 95.1 µM (inactive) and the GI50 (NCI-H23) was 91 µM (inactive). For the same molecule, the GI50 (SK-MEL-5) was 35.2 µM (inactive), the GI50 (NCI-H522) was 66.8 µM (inactive) and the GI50 (NCI/ADR-RES) was 71.1 µM (inactive). For the same molecule, the GI50 (MOLT-4) was 42.4 µM (inactive), the GI50 (COLO 205) was 48.4 µM (inactive) and the GI50 (CCRF-CEM) was 47.4 µM (inactive). The GI50 (MCF7) was 57.3 µM (inactive), the GI50 (HT-29) was 37.1 µM (inactive) and the GI50 (A498) was 22.6 µM (inactive). For the same molecule, the GI50 (CAKI-1) was > 100 µM (inactive), the GI50 (HOP-62) was > 100 µM (inactive) and the GI50 (HL-60) was 20 µM (inactive). The GI50 (NCI-H226) was 87.5 µM (inactive), the GI50 (MDA-MB-231) was 36.1 µM (inactive) and the GI50 (PC-3) was 43.5 µM (inactive). The GI50 (EKVX) was 31.2 µM (inactive), the GI50 (UO-31) was 48.1 µM (inactive) and the GI50 (K562) was 32.9 µM (inactive). The GI50 (RPMI-8226) was 33.6 µM (inactive), the GI50 (DU-145) was > 100 µM (inactive) and the GI50 (RXF 393) was > 100 µM (inactive). The GI50 (U-251) was 36.4 µM (inactive), the GI50 (HOP-92) was 30.1 µM (inactive) and the GI50 (SN12C) was > 100 µM (inactive). The GI50 (HCC 2998) was > 100 µM (inactive), the GI50 (A549) was 50.6 µM (inactive) and the GI50 (SF-539) was > 100 µM (inactive). For the same molecule, the GI50 (BT-549) was 74.6 µM (inactive), the GI50 (MDA-MB-435) was 59.2 µM (inactive) and the GI50 (LOX IMVI) was 37.6 µM (inactive). For the same molecule, the GI50 (UACC-257) was 55.5 µM (inactive), the GI50 (HCT-116) was 35.2 µM (inactive) and the GI50 (SF-295) was 34.8 µM (inactive). The GI50 (SF-268) was 68.7 µM (inactive), the GI50 (KM12) was 54.6 µM (inactive) and the GI50 (HCT-15) was 54.2 µM. For the same molecule, the GI50 (OVCAR-8) was 89.1 µM (inactive), the GI50 (ACHN) was 64.7 µM (inactive) and the GI50 (NCI-H460) was > 100 µM (inactive). The GI50 (OVCAR-3) was 54.1 µM (inactive) and the GI50 (SK-MEL-28) was 92 µM (inactive).

Reference: ChEMBL document CHEMBL1201862, “PubChem BioAssay data set” (2004)
